Data reported in US11964956B2, “Cannabinergic compounds and uses thereof” (Northeastern University, priority 2012, dated 2024).
Where two headings read alike, the source gives them in different places.

Tests used:
rats = assay: Hypothermia assay (FIG. 3A); format: in vivo, rat; conditions: change in body temperature vs time after injection, compared to AM10843
rCB1 [1] = target: T1, rCB1 (Rattus norvegicus, UniProt P20272); assay: cAMP assay, rCB1; format: cell-based
Protocol: (§1) Functional characterization of some of the disclosed compounds was performed by using the cyclic adenosine monophosphate (cAMP) assay. The functional potency of the compound in the cAMP assay is represented by the EC50 value. The lower the EC50 value, the higher the functional potency. A detailed description of the cyclic adenosine monophosphate (cAMP) assay is given in Nikas et al. J. Med. Chem. (2010) 6996, the content of which is incorporated herein by reference. Table 10 lists the EC50 values of certain compounds of Formula (Je) in the cAMP assay.

mCB2 = target: T2, mCB2 (Mus musculus, UniProt P47936); assay: mCB2 competition-equilibrium binding with [3H]CP-55,940, HEK293 membranes
T2 construct: expressed in transfected cells; host or cells: HEK293
T2 sequence (P47936 whole entry): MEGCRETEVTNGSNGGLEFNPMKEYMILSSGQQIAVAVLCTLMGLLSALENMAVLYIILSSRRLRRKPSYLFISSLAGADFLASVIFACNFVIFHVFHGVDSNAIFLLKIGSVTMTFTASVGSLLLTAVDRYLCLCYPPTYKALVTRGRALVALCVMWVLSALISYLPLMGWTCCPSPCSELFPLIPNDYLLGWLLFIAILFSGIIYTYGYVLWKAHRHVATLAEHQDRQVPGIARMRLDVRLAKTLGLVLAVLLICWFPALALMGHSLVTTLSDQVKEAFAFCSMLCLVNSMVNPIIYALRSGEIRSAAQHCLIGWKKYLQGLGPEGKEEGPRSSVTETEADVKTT
Protocol: (§2) HEK293 cells expressing hCB1 or hCB2 or mCB2 receptor are used for membrane preparations according to Abadji et al. The resulting pellet is resuspended in 10 mM Tris-chloride, pH 7.4, with 5 mM MgCl2 and 2 mM EDTA (TME), rapidly frozen in liquid nitrogen and stored at −80° C. for no longer than two months. Protein content is assayed by using the Bio-Rad protein assay according to the manufacturer's protocol.
(§3) All the cannabinoids discussed in this invention are tested for their ability to bind to CB 1 and CB2 receptors using membranes from rat brain or HEK293 cells expressing either mCB2 or hCB2, respectively via competition-equilibrium binding using [^3H]CP-55,940. Results are analyzed using nonlinear regression to determine ligand IC50 (Prism by GraphPad Software, Inc.), and Ki values are calculated from the IC50. IC50 and Ki values are determined from at least three independent experiments.
(§4) Some disclosed compounds were tested for CB1 and CB2 receptor binding affinity, which can be represented by a Ki value. The Ki value is the affinity constant and describes the affinity of the compound for the receptor. […] A detailed description of the methods used to test binding affinity of compounds is given in US 2007/0135388 and in Papahatjis, et al., J. Med. Chem. (2007) 4048, the content of each of which is hereby incorporated by reference.

rCB1 [2] = target: T1, rCB1; assay: rCB1 competition-equilibrium binding with [3H]CP-55,940, rat brain membranes; set-up: Frozen rat brains (CB1 source) are obtained from Pel-Freeze Biologicals; tissue Pel-Freeze Biologicals (Rogers, AK); host or cells: rat brain membranes
Protocol: Frozen rat brains (CB1 source) are obtained from Pel-Freeze Biologicals (Rogers, AK) and stored at −80° C. until use. Membranes are prepared according to the method described by Dodd et al. and used in our laboratory as reported.
as §3, §4

hCB2 [3] = target: T3, hCB2 (Homo sapiens, UniProt P34972); assay: cAMP assay, hCB2; format: cell-based; conditions: for Emax: cAMP assay
T3 construct: expressed in transfected cells; host or cells: HEK293
T3 sequence (P34972 whole entry): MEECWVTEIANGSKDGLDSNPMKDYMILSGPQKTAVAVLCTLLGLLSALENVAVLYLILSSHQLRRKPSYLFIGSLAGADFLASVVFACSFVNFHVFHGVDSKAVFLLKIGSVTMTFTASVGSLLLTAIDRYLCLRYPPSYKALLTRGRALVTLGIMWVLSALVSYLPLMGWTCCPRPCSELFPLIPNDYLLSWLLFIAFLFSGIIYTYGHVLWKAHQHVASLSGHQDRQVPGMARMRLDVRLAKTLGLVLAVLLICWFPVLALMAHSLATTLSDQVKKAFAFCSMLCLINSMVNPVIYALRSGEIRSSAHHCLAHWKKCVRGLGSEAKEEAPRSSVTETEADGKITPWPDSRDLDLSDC
Protocol: as §1

hCB2 [4] = target: T3, hCB2; assay: hCB2 competition-equilibrium binding with [3H]CP-55,940, HEK293 membranes
Protocol: as §2, §3, §4

mice = assay: Analgesia assay, tail flick / tail immersion (FIG. 3B); format: in vivo, mouse; conditions: iso-active doses, compared with nabilone (AM10806) and AM10843
Protocol: Some of the disclosed compounds were tested in vivo using two well defined rodent assays for cannabinergic activity, the analgesia and the hypothermia assays. The analgesia assay (tail immersion test) determines the ability of a test compound to activate cannabinergic signaling, through modulation of cannabinoid receptors, and thereby reduce nociceptive pain. The hypothermia test determines the ability of a test compound to act as a central CB1 agonist and decrease the body temperature. […] The details of both assays are described below.
Analgesia Assay. C57BL6/J mice (Jackson Laboratories, Bar Harbor Maine) were single housed at least 1 h before start of experiment. Food and water were removed immediately before the first injection.
Route of administration=i.p. Volume=1 mL/100 g body weight.
Tail withdrawal test: 52° C. water bath (use bags). Bag was made of stapled surgery sheets to form a small pocket the size of a mouse. […] The tip of the mouse's tail was dipped into the warm water, with 1 cm submerged.

[5] = background statement; cited from earlier work

T1 sequence (P20272 whole entry): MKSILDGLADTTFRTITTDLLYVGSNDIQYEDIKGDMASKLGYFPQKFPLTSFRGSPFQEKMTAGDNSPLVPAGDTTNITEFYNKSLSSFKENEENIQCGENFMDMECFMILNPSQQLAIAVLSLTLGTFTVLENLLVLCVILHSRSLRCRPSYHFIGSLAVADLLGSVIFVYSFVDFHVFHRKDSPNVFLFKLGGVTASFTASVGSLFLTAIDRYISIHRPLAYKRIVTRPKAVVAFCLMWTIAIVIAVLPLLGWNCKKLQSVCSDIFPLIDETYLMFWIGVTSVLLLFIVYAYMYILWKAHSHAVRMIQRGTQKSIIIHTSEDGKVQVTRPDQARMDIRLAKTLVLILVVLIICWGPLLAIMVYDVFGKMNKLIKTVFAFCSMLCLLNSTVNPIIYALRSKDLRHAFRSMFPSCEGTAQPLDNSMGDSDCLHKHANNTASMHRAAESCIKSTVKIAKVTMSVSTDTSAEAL

| Compound | duration of hypothermic effect (rats) | EC50 (rCB1 [1]) [nM] | Emax (rCB1 [1]; cAMP assay) [%] | Ki (mCB2) [nM] | Ki (rCB1 [2]) [nM] | EC50 (hCB2 [3]) [nM] | Emax (hCB2 [3]) [%] | Ki (hCB2 [4]) [nM] | duration of analgesic effect (tail flick) (mice) | EC50 (rCB1 [1]; cAMP assay, read-out: rCB1 EC50) [nM] | Ki (mCB2; Table 9, Formula (Ie), read-out: mCB2 (Ki)) [nM] | Ki (rCB1 [2]; Table 9, Formula (Ie), read-out: rCB1 (Ki)) [nM] | Ki (hCB2 [4]; Table 9, Formula (Ie), read-out: hCB2 (Ki)) [nM] | slow and erratic absorption [5] [h] |
| --- | --- | --- | --- | --- | --- | --- | --- | --- | --- | --- | --- | --- | --- | --- |
| CC(C)(C(=O)OCCCC#N)c1cc(O)c2c(c1)OC(C)(C)[C@@H]1CCC(=O)C[C@@H]21 [8 AM10811, 3-Cyanopropyl-2-((6aR,10aR)-1-hydroxy-6,6-dimethyl-9-oxo-6a,7,8,9,10,10a-hexahydro-6H-benzo[c]chromen-3-yl)-2-methylpropanoate] | shorter acting | 0.4 ± 0.06 | 87 | 1.1 ± 0.4 | 0.7 ± 0.03 | 0.1 ± 0.03 | 77 | 6.2 ± 2.7 | – | – | – | – | – | – |
| CCCOC(=O)CC(C)(C)c1cc(O)c2c(c1)OC(C)(C)[C@@H]1CCC(=O)C[C@@H]21 [18 AM10819, Propyl-3-((6aR,10aR)-1-hydroxy-6,6-dimethyl-9-oxo-6a,7,8,9,10,10a-hexahydro-6H-benzo[c]chromen-3-yl)-3-methylbutanoate] | – | 15.9 ± 3.6 | 90 | 26 ± 3.6 | 11 ± 1.4 | 0.2 ± 0.09 | 82 | 90 ± 11.3 | shorter acting | – | – | – | – | – |
| CCCCOC(=O)C(C)(C)c1cc(O)c2c(c1)OC(C)(C)C1CCC(=O)CC21 (stereo not shown) [AM 10843] | – | 1 ± 0.3 | 83 | – | – | 1.1 ± 2.3 | 80 | – | – | – | – | – | – | – |
| CC(C)(C(=O)OCCCN=[N+]=[N-])c1cc(O)c2c(c1)OC(C)(C)[C@@H]1CCC(=O)C[C@@H]21 [Compound 9, 3-Azidopropyl-2-((6aR,10aR)-1-hydroxy-6,6-dimethyl-9-oxo-6a,7,8,9,10,10a-hexahydro-6H-benzo[c]chromen-3-yl)-2-methylpropanoate] | – | 0.2 | 52 | 4 | 0.13 | 2.1 | 87 | 3.1 | – | – | – | – | – | – |
| CCCCCOC(=O)C(C)(C)c1cc(O)c2c(c1)OC(C)(C)[C@@H]1CCC(=O)C[C@@H]21 [Compound 34c, Pentyl 2-((6aR,10aR)-1-hydroxy-6,6-dimethyl-9-oxo-6a,7,8,9,10,10a-hexahydro-6H-benzo[c]chromen-3-yl)-2-methylpropanoate] | – | 8.9 ± 2.3 | 94 | 6.1 ± 1.1 | 0.4 ± 0.01 | 8.4 ± 1.8 | 46 | 11.5 ± 1.6 | – | – | – | – | – | – |
| CCC[C@@H](C)OC(=O)C(C)(C)c1cc(O)c2c(c1)OC(C)(C)[C@@H]1CCC(=O)C[C@@H]21 [Compound 34f, (R)-Pentan-2-yl 2-((6aR,10aR)-1-hydroxy-6,6-dimethyl-9-oxo-6a,7,8,9,10,10a-hexahydro-6H-benzo[c]chromen-3-yl)-2-methylpropanoate] | – | 94.5 | 71 | 36.4 ± 12.4 | 4 ± 0.7 | – | – | 7 ± 2.1 | – | – | – | – | – | – |
| CC(C)(C(=O)OCCCN1CCOCC1)c1cc(O)c2c(c1)OC(C)(C)[C@@H]1CCC(=O)C[C@@H]21 [Compound 34g, 3-Morpholinopropyl 2-((6aR,10aR)-1-hydroxy-6,6-dimethyl-9-oxo-6a,7,8,9,10,10a-hexahydro-6H-benzo[c]chromen-3-yl)-2-methylpropanoate] | – | – | 78 | – | – | – | – | – | – | 4.2 | 91.7 ± 20.4 | 17 ± 3.5 | 18.2 ± 4.1 | – |
| CCCCSC(=O)C(C)(C)c1cc(O)c2c(c1)OC(C)(C)[C@@H]1CCC(=O)C[C@@H]21 [Compound 34h, S-Butyl 2-((6aR,10aR)-1-hydroxy-6,6-dimethyl-9-oxo-6a,7,8,9,10,10a-hexahydro-6H-benzo[c]chromen-3-yl)-2-methylpropanethioate] | – | 0.2 ± 0.04 | 89 | 5 ± 1.4 | 0.7 ± 0.03 | 83.4 ± 4.7 | 72 | 16 ± 2.4 | – | – | – | – | – | – |
| CCCCCc1cc(O)c2c(c1)OC(C)(C)[C@@H]1CCC(C)=C[C@@H]21 [Dronabinol] | – | – | – | – | – | – | – | – | – | – | – | – | – | 2 to 6 |
